In the supplement of paper PMC10307832:

Key:
Experiment in all cases: relative viability (nuclei count vs DMSO), 5 days (fraction); higher = more cells survive
[1] = compound: C1CC1C(=O)NC2=NNC3=C2C=CC(=C3)C4=CC(=CC=C4)C(=O)NC5CC5 [XMD13-2] + COc1cccc2cc(-c3nc([C@H]4CC[C@H](C(=O)O)CC4)n4ncnc(N)c34)[nH]c12 [OSI-027] (partner 0.5 µM)
Summary of the method: (§1)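 One day after seeding in 1536-well plates, lung cancer cell lines were dosed by pin tool. Dosing was either single-drug or a fixed anchor-drug dose plus five library-drug doses (not always all listed) in √10 steps. After 5 days, nuclei were stained in one fix-and-stain step and counted on 4× images, and relative viability is the nuclei count of treated wells over that of vehicle wells, given as the median of duplicate plates.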

[2] = compound: Cc1ccc(C(=O)Nc2cccc(C(F)(F)F)c2)cc1Nc1cncc(C(N)=O)c1 [ALW-II-49-7] + CCNC(=O)c1noc(-c2cc(C(C)C)c(O)cc2O)c1-c1ccc(CN2CCOCC2)cc1 [Luminespib] (partner 0.01 µM)
Summary of the method: as §1

[3] = compound: Cc1ccc(C(=O)Nc2cccc(C(F)(F)F)c2)cc1Nc1cncc(C(N)=O)c1 [ALW-II-49-7] + Cc1nc(Nc2ncc(C(=O)Nc3c(C)cccc3Cl)s2)cc(N2CCN(CCO)CC2)n1 [Dasatinib] (partner 0.075 µM)
Summary of the method: as §1

[4] = compound: Cc1nc(Nc2ncc(C(=O)Nc3c(C)cccc3Cl)s2)cc(N2CCN(CCO)CC2)n1 [Dasatinib] + CC(=O)c1c(C)c2cnc(Nc3ccc(N4CCNCC4)cn3)nc2n(C2CCCC2)c1=O [Palbociclib] (partner 0.5 µM)
Summary of the method: as §1

Cell Line	relative viability ([1]; first compound 0.05 µM)	relative viability ([1]; first compound 0.1581 µM)	relative viability ([1]; first compound 0.5 µM)	relative viability ([1]; first compound 1.581 µM)	relative viability ([1]; first compound 5 µM)	relative viability ([2]; first compound 0.08 µM)	relative viability ([2]; first compound 0.253 µM)	relative viability ([2]; first compound 0.8 µM)	relative viability ([2]; first compound 2.53 µM)	relative viability ([2]; first compound 8 µM)	relative viability ([3]; first compound 0.08 µM)	relative viability ([3]; first compound 0.253 µM)	relative viability ([3]; first compound 0.8 µM)	relative viability ([3]; first compound 2.53 µM)	relative viability ([3]; first compound 8 µM)	relative viability ([4]; first compound 0.005 µM)	relative viability ([4]; first compound 0.01581 µM)	relative viability ([4]; first compound 0.05 µM)	relative viability ([4]; first compound 0.1581 µM)	relative viability ([4]; first compound 0.5 µM)
NCI-H650	0.522	0.512	0.599	0.474	0.522	0.853	0.972	0.632	0.722	0.526	0.42	0.518	0.421	0.482	0.341	0.307	0.326	0.343	0.323	0.261
NCI-H1915	0.756	0.591	0.645	0.548	0.595	0.745	0.612	0.679	0.493	0.441	0.372	0.349	0.339	0.326	0.292	0.482	0.438	0.403	0.195	0.163
NCI-H2009	0.69	0.563	0.815	0.634	0.66	1.04	1.02	1.04	0.845	0.728	0.284	0.29	0.289	0.264	0.252	0.186	0.137	0.138	0.103	0.101
NCI-H1651	0.813	0.716	0.768	0.747	0.778	0.637	0.802	0.801	0.644	0.876	0.317	0.393	0.432	0.507	0.517	0.523	0.494	0.514	0.4	0.36
HOP-62	0.998	0.896	0.783	0.895	0.792	0.959	0.883	0.75	0.702	0.735	0.635	0.617	0.56	0.616	0.495	0.391	0.381	0.506	0.431	0.182
CAL-12T	0.803	0.585	0.549	0.426	0.577	0.193	0.293	0.517	0.285	0.38	0.433	0.223	0.277	0.372	0.266	0.418	0.414	0.402	0.191	0.144
LCLC-103H	0.588	0.497	0.47	0.509	0.506	0.852	1.01	1.03	0.854	1.03	0.392	0.429	0.393	0.419	0.411	0.506	0.47	0.452	0.453	0.404
NCI-H3122	1.02	0.924	1.02	0.917	0.7	0.0922	0.0773	0.124	0.102	0.195	0.83	0.81	0.737	0.891	0.834	0.201	0.214	0.207	0.239	0.131
NCI-H1395	0.684	0.757	0.653	0.633	0.647	0.754	0.796	0.823	0.716	0.706	0.436	0.457	0.407	0.431	0.417	0.594	0.588	0.535	0.443	0.304
PC-14	1.04	0.832	0.98	0.842	0.971	0.191	0.161	0.119	–	0.125	0.202	0.3	0.242	0.227	0.192	0.561	0.502	0.427	0.221	0.0393
BEN	0.309	0.276	0.312	0.291	0.327	0.682	0.458	0.509	0.521	0.24	0.378	0.341	0.348	0.325	0.305	0.448	0.387	0.43	0.365	0.34
EPLC-272H	0.313	0.257	0.281	0.238	0.247	0.218	–	0.324	0.312	0.276	0.283	–	0.26	0.345	0.375	0.31	0.327	0.314	0.296	0.143
LK-2	0.236	0.151	0.191	0.239	0.216	–	0.184	0.174	0.205	0.185	–	0.271	0.252	0.31	0.336	0.583	–	0.41	0.217	0.223
ChaGo-K-1	0.642	0.545	0.597	0.542	0.497	0.529	0.664	0.544	0.444	0.438	0.538	0.668	0.554	0.539	0.501	0.947	0.881	0.892	0.802	0.634
HCC-827	0.911	0.747	0.708	0.753	0.675	0.795	0.587	0.678	0.683	1.76	0.326	0.331	0.294	0.232	0.239	0.438	0.458	0.419	0.135	0.114
NCI-H1993	0.448	0.5	0.511	0.558	0.432	0.701	0.705	0.95	0.793	1.14	0.492	0.533	0.423	0.545	0.666	0.65	0.623	0.622	0.662	0.373

Cell Line	relative viability ([1]; first compound 0.05 µM)	relative viability ([1]; first compound 0.1581 µM)	relative viability ([1]; first compound 0.5 µM)	relative viability ([1]; first compound 1.581 µM)	relative viability ([1]; first compound 5 µM)	relative viability ([2]; first compound 0.08 µM)	relative viability ([2]; first compound 0.253 µM)	relative viability ([2]; first compound 0.8 µM)	relative viability ([2]; first compound 2.53 µM)	relative viability ([2]; first compound 8 µM)	relative viability ([3]; first compound 0.08 µM)	relative viability ([3]; first compound 0.253 µM)	relative viability ([3]; first compound 0.8 µM)	relative viability ([3]; first compound 2.53 µM)	relative viability ([3]; first compound 8 µM)	relative viability ([4]; first compound 0.005 µM)	relative viability ([4]; first compound 0.01581 µM)	relative viability ([4]; first compound 0.05 µM)	relative viability ([4]; first compound 0.1581 µM)	relative viability ([4]; first compound 0.5 µM)
NCI-H647	0.779	0.781	0.669	0.59	0.508	0.134	0.206	0.236	0.167	0.154	0.153	0.131	0.15	0.161	0.193	0.314	0.22	0.162	0.0968	0.0812
NCI-H522	0.71	0.692	0.742	0.701	0.658	1.41	1.05	1.08	1.15	1.18	0.979	0.81	1.05	0.772	0.987	1.1	0.802	0.985	0.773	0.722
NCI-H460	0.939	0.837	0.713	0.723	0.645	0.0293	0.0319	0.0397	0.0303	0.0275	0.492	0.583	0.563	0.423	0.507	0.14	0.112	0.0827	0.06	0.0635
EMC-BAC-2	0.394	0.4	0.383	0.366	0.358	1.07	1.14	1.22	1.06	0.998	0.311	0.324	0.284	0.293	0.29	0.507	0.424	0.417	0.319	0.243
NCI-H23	0.761	0.544	0.593	0.411	0.783	0.188	0.22	0.228	–	0.191	0.84	0.871	0.574	0.706	0.768	0.536	0.476	0.38	0.34	0.271
NCI-H1793	0.404	–	0.255	0.277	0.271	0.146	0.197	0.195	0.177	0.175	0.398	0.387	0.296	0.348	0.406	0.217	0.279	0.236	0.247	0.231
A-427	0.462	0.354	0.489	0.444	0.355	0.728	0.736	0.875	–	0.769	0.686	0.824	0.733	0.741	0.627	0.5	0.507	0.525	0.42	0.394
ABC-1	0.693	0.486	0.572	0.427	0.368	0.472	0.535	0.718	0.355	0.496	0.501	0.627	0.506	0.656	0.483	0.625	0.5	0.662	0.524	0.688
NCI-H322M	0.576	0.507	0.519	0.588	0.593	0.897	0.762	0.965	0.868	0.833	0.246	0.256	0.261	0.251	0.231	0.435	0.382	0.365	0.326	0.228
COR-L23	0.915	0.78	0.838	0.711	0.864	0.651	0.465	0.521	0.774	0.808	0.483	0.419	0.45	0.443	0.523	0.317	0.229	0.229	0.168	0.19
SW 900	0.654	0.707	0.686	0.457	0.635	0.16	0.141	0.191	0.171	0.155	0.607	0.565	0.559	0.565	0.478	0.454	0.273	0.276	0.222	0.183
NCI-H2085	0.74	0.749	0.757	0.654	0.916	0.405	0.465	0.445	0.4	0.44	0.236	0.168	0.239	0.215	0.213	0.495	0.485	0.395	0.191	0.206
NCI-H2087	0.716	0.69	0.482	0.565	0.489	0.142	0.166	0.197	0.171	0.171	0.924	0.784	0.825	0.978	0.753	0.223	0.206	0.238	0.184	0.142
NCI-H2126	0.8	0.665	0.666	0.702	0.837	0.938	0.932	0.855	0.803	0.868	0.534	0.638	0.586	0.52	0.457	0.362	0.347	0.309	0.298	0.285
SK-LU-1	0.382	0.375	0.426	0.311	0.389	0.184	0.221	0.21	0.192	0.157	0.17	0.207	0.206	0.175	0.197	0.34	0.228	0.241	0.207	0.189
LCLC-97TM1	0.612	0.404	0.603	0.433	0.445	0.772	0.689	0.807	0.869	0.656	0.808	0.944	0.808	0.88	0.851	0.203	0.227	0.246	0.2	0.13
